Among the data in a melting point compilation (Tetko et al.; mined from patent text by program, amines drawn as free bases though some values may be those of a salt) are melting point values, retold here.

`COc1cc2c(c(Cl)c1Cl)C(=O)C(C)(c1ccc([N+](=O)[O-])cc1)C2` (stereo unspecified) had a melting point of 179 to 180 °C. As for `CCCCOC(=O)C(C#N)=C1Nc2ccccc2O1`, the figure is 116 to 119 °C; as for `CCCn1nc2c(N)nc3c(c2c1CC(C)(C)O)CCCC3`, 143 to 145 °C; as for `Cn1c(=O)c(S(C)(=O)=O)c(N2CCN(C(=O)c3cccs3)CC2)c2ccccc21`, 224 °C. With `O=S(=O)(c1ccccc1)n1ccc2c(OCCCl)cccc21`, the melting point lay in the range of 85 to 87 °C.

With `Nc1nc2ccc3ccccc3c2s1`, the melting point lay within 258 to 260 °C.

As for `CCOCc1nc2c(N)nc3ccccc3c2n1CC1CC(C)=NO1` (stereo unspecified), the melting point was 204 to 205 °C.

In turn, `CCC(=O)Nc1c(C(=O)c2cc(CO)co2)[nH]c2cc(Cl)ccc12` returned a melting point of 171 to 172 °C. Regarding `COc1ccc(CCc2cc3c(s2)-n2c(C)nnc2CN=C3c2ccccc2Cl)cc1`, the melting point was in the range of 100 to 105 °C. As for `COc1cccc(OC)c1-c1cc(C(=O)NC2(C(=O)O)C3CC4CC(C3)CC2C4)nn1-c1cccc2ncccc12` (stereo unspecified), the figure is greater than 260 °C; as for `CCOC(=O)c1cn(N)c2c(F)c(F)c(F)cc2c1=O`, 217 °C; as for `CC(C)(C)OC(=O)CCC(CCC(=O)OC(C)(C)C)(CCC(=O)OC(C)(C)C)NC(=O)C=C=C[N+](=O)[O-]`, 140 to 141 °C. Turning to `CCOC(=O)C(C#N)C1NC(=O)c2sccc2-n2cccc21` (stereo unspecified), the melting point worked out at 195 °C. As for `O=C(O)c1ccc(OCCNC(=O)C2Cc3ccccc3N2S(=O)(=O)c2ccc(-c3ccc(F)cc3)cc2)c(C(F)(F)F)c1` (stereo unspecified), the figure is 139 to 142 °C. Under `O=C(O)CNC(=O)c1nc(Cl)c2cc(OCc3ccccc3)ccc2c1O` stands 194 to 196 °C; under `CC(NC(=O)C(=O)c1c[nH]c2ccc(Br)cc12)c1c[nH]c2ccc(Br)cc12` (stereo unspecified), 141 °C.

For the molecule `Cc1c(C)c([N+](=O)[O-])c(C)c2c1OC(C)(C)C2c1ccc(C(C)C)cc1` (stereo unspecified), the melting point was in the range of 109 to 110 °C. `NC(=O)[C@@H](N)CN(c1ccccc1)c1ncccn1` gave a melting point of 139 °C.

Molecule `CCOC(=O)C1=C(C)NC(c2cscn2)=NC1c1cccc(OC)c1` (stereo unspecified) registered a melting point of 140 to 142 °C. The molecule `CCN(SN(C)C=Nc1ccc(Cl)cc1C)c1ccccc1` displayed a melting point of 51.5 to 53 °C.

Turning to `CC(C)(C)c1cc(-c2nn(CC(=O)O)c3ncccc23)cc(C(C)(C)C)c1O`, the melting point was 210 to 212 °C.

For `COC(=O)/C=C(C)/C=C/C(F)=C(C)/C=C/c1c(C)sc(C)c1C`, the melting point lay in the range of 126 to 128 °C. Under `CCOc1ccc(-c2c(C(=O)OC)c(C(=O)OC)c(O)c3cc(OC)c(OC)c(OC)c23)cc1OCC` stands 138 to 140 °C.

In the case of `Cn1c(-c2ccccc2)cc(O)c(C(=O)c2ccccc2)c1=O`, the melting point is 149 to 151 °C. As for `COc1cc([N+](=O)[O-])c(N)cc1O`, the figure is 208 °C. For `Cc1c(C(N)=O)nc2c(=O)[nH]c3cc(C(F)(F)F)ccc3n12`, the melting point was greater than 250 °C. Under `COc1cc(Br)nc2[nH]cc(-c3ccnc(N)n3)c12` stands greater than 210 °C. The molecule `COc1nc(NC(C)C)nc(NC2CC2)n1` registered a melting point of 77 to 80 °C. Under `N#CNC(=NCCc1ccccc1Cl)c1cncc(NCc2ccccc2)c1` stands 146 °C; under `COCCNC(=O)c1cccc(-c2cccc3cc(Cc4cc(F)cc(Cl)c4)sc23)c1F`, 124 to 125 °C. As for `O=C(N(Cc1cccnc1)c1ccc(F)cc1)C(F)(F)F`, the figure is 97 to 98 °C; as for `O=C(O)c1c(Cl)c(Cl)c(Cl)c(Cl)c1C(=O)Nc1ccc(S(=O)(=O)C(F)(F)F)cc1`, 92 to 97 °C. As for `CC1(C)Oc2ccc(Br)cc2C(Oc2ccc(O)nn2)C1(C)O` (stereo unspecified), the figure is 242 °C; as for `CS(=O)c1nnc(-c2ccccc2NC(=O)c2cccc(C(F)(F)F)c2)s1` (stereo unspecified), 125 to 126 °C; as for `COC(=O)c1cc(N2C(=O)CCC2=O)c(Cl)c(S(N)(=O)=O)c1`, 195 to 196 °C.

As for `Cc1ccc(S(=O)(=O)NCC(=O)NCc2ccc(C(c3cc(F)ccc3F)S(=O)(=O)c3ccc(Cl)cc3)nc2)cc1` (stereo unspecified), the melting point was in the range of 217 to 218 °C. In turn, `CS(=O)(=O)NC(=O)C1(CCCCCCCCCCCCC2(C(=O)O)CC2)CC1` registered a melting point of 97.5 to 99.4 °C. As for `CCOc1ccc(C2=NN(C3CCN(C(=O)CCl)CC3)C(=O)[C@@H]3CC=CC[C@H]23)cc1OCC`, the figure is 135 to 136 °C; as for `O=C1C(=O)c2ccccc2C2=C1SCC1(CCN(CC(O)Cc3ccccc3)CC1)O2` (stereo unspecified), 82 to 84 °C. Under `CCC(C)(C)NC(=O)C(=O)C(C)(C)C` stands 36 °C; under `CCCNC1Cc2cccc3[nH]c(=O)n(c23)C1` (stereo unspecified), greater than 300 °C; under `OCc1ccc(/C=C/c2ccncc2)nc1`, greater than 199 °C. Under `CC(C)Nc1cccnc1N1CCN(C(=O)c2ccc(C(=O)NCCN3CCCCC3)cc2)CC1` stands 106 to 107 °C; under `O=C(Cn1ncc(-c2ccccc2)c1-c1ccccc1)NCCN1CCCCC1`, 95 to 97 °C; under `O=C(Nc1ccc(C(F)(F)F)cc1)OCC1(COC(=O)Nc2ccc(C(F)(F)F)cc2)CSc2ccccc2C1=O`, 76 to 82 °C. In turn, `O=C(O)C(CCc1ccccc1[N+](=O)[O-])N1C(=O)c2ccccc2C1=O` (stereo unspecified) gave a melting point of 177 to 179 °C. As to `Cc1cn(-c2cccc(OCCOS(N)(=O)=O)c2)cn1`, the melting point is 169 to 170 °C. As for `O=C(c1ccccc1)N1CC(OCc2ccccc2)C(OCc2ccccc2)C(OCc2ccccc2)C1CO` (stereo unspecified), the figure is 104 to 106 °C; as for `CC1CC2C3=C(C(O)CC2(C)C1C(=O)CO)C1(C)C=CC(=O)C=C1C(F)C3` (stereo unspecified), 173 °C.

In the case of `O=S(=O)(c1ccccc1)N1CCCC1c1cccc(F)c1` (racemic), the melting point came to 96 °C. As for `N#Cc1nc(N)c(Cl)nc1C#N`, the figure is 205 to 208 °C; as for `CNC(=O)c1cc2c(c(F)c1F)N(c1ccc(I)cc1C)COC2=O`, 219 to 223 °C; as for `CCC(C)Oc1nc(N)nc2c1ncn2C1C=CC(CO)C1` (stereo unspecified), 159 to 161 °C. Consider `Cc1ccc(C(=O)NCc2ccccc2)cc1-c1nc(NCCCN(C)C)nc2c1CNC(=O)N2c1c(F)cccc1F`, for which the melting point lay in the range of 141 to 144 °C. `O=C(Nc1ccc(-c2ncc(-c3ccc(NC(=O)C4CCCCCC4)cc3)[nH]2)cc1)c1c(F)c(F)c(F)c(F)c1F` had a melting point of 300 to 302 °C. As for `CSc1nnc(CNc2c(C)csc2C)n1C`, the figure is 92 to 96 °C; as for `CC(C)n1nc(-c2cc(Cl)c(N)nc2-c2ccccc2)ccc1=O`, 207 to 208 °C; as for `CCCc1c(O)c(C(=O)O)cc(Cl)c1OCCCCCCc1cccc(O)c1O`, 110 to 113 °C.

In the case of `CSc1nc(-c2ccncc2)n(-c2ccc(C(C)C)cc2)c(=O)c1C#N`, the melting point fell in the range of 173 to 175 °C. The molecule `CC(C)c1cc(Oc2ccc(Cl)cc2C(=O)O)cc(C(C)C)c1` yielded a melting point of 129 to 130 °C.

With `O=C(Cc1ccc(Cl)cc1Cl)N1CCN(c2cnccn2)CC1`, the melting point lay within 124 to 125 °C.

What is called melting point is the temperature, or range, at which the solid turns liquid.
